Results published in patent publication US7732604B2, “Triazolopyrazine derivatives” (Pfizer Inc., priority 2006, dated 2010).

Target: T1, HGFR (Homo sapiens, UniProt P08581)
T1 construct: purchased Upstate 14-526
Experiment: HGFR continuous-coupled spectrophotometric assay (tyrosine kinase activity on Met-2 substrate peptide)
Type: biochemical
Settings: HGFR 50 nM, Met-2 peptide 0.5 mM, ATP 300 μM, 37° C., absorbance 340 nm; read-out: Ki

T1 sequence (P08581 974-1390 limits assumed): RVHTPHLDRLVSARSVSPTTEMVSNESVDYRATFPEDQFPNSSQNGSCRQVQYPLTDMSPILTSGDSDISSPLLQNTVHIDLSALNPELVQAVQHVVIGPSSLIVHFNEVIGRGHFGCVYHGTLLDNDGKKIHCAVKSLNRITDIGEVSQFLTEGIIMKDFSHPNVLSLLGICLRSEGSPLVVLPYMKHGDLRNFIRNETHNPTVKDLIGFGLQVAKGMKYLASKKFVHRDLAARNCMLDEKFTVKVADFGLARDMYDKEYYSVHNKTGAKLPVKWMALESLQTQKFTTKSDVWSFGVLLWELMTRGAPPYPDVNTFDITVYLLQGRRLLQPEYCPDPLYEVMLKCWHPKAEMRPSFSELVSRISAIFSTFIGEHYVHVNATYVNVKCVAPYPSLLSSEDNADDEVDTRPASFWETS

Row | SMILES | Ki
1 | OC[C@@H]1C[C@H]1CNc1cnc2nnn(Cc3ccc4ncccc4c3)c2n1 [Example 127, [(1R,2R)-2-({[1-(quino-lin-6-yl-methyl)-1H-[1,2,3]tri-azolo[4,5-b]pyra-zin-6-yl]ami-no}methyl)cyclo-propyl]methanol] | 40 nM
2 | Cc1c(CNc2cnc3nnn(Cc4ccc5ncccc5c4)c3n2)cnn1C [Example 128, N-[(15-di-methyl-1H-pyra-zol-4-yl)meth-yl]-1-(quino-lin-6-yl-methyl)-1H-[1,2,3]tri-azolo[4,5-b]pyra-zin-6-amine] | 28 nM
3 | O[C@@H]1COC[C@H]1Nc1cnc2nnn(Cc3ccc4ncccc4c3)c2n1 [Example 131, (3S4R)-4-{[1-(quino-lin-6-yl-methyl)-1H-[123]tri-azolo[45-b]pyra-zin-6-yl]ami-no}tetrahydro-furan-3-ol] | 54 nM
4 | CC(C)(C)OC(=O)NC[C@H]1CCN(c2cnc3nnn(Cc4ccc5ncccc5c4)c3n2)C1 [Example 133, tert-butyl ({(3R)-1-[1-(quino-lin-6-yl-methyl)-1H-[1,2,3]tri-azolo[4,5-b]pyra-zin-6-yl]pyrro-lidin-3-yl}meth-yl)carbamate] | 51 nM
5 | CNC1CCN(c2cnc3nnn(Cc4ccc5ncccc5c4)c3n2)CC1 [Example 135, N-methyl-1-[1-(quino-lin-6-yl-methyl)-1H-[1,2,3]tri-azolo[4,5-b]pyra-zin-6-yl]pipe-ridin-4-amine] | 35 nM
6 | NC[C@H]1CCN(c2cnc3nnn(Cc4ccc5ncccc5c4)c3n2)C1 [Example 136, 1-[(3R)-1-[1-(quino-lin-6-yl-methyl)-1H-[1,2,3]tri-azolo[4,5-b]pyra-zin-6-yl]pyrro-lidin-3-yl}methanamine] | 30 nM
7 | NCCNc1cnc2nnn(Cc3ccc4ncccc4c3)c2n1 [Example 137, N-[1-(quinolin-6-yl-methyl)-1H-[1,2,3]tri-azolo[4,5-b]pyra-zin-6-yl]eth-ane-1,2-diamine] | 27 nM
8 | NC(=O)CNc1cnc2nnn(Cc3ccc4ncccc4c3)c2n1 [Example 140, N~2~-[1-(quino-lin-6-yl-methyl)-1H-[1,2,3]tri-azolo[4,5-b]pyra-zin-6-yl]glycinamide] | 47 nM
9 | c1cnc2ccc(Cn3nnc4ncc(OC5CCOCC5)nc43)cc2c1 [Example 142, 6-{[6-(tetra-hydro-2H-py-ran-4-yloxy)-1H-[1,2,3]tri-azolo[4,5-b]pyra-zin-1-yl]meth-yl}quinoline] | 49 nM
10 | FC1CCN(C2CCN(c3cnc4nnn(Cc5ccc6ncccc6c5)c4n3)C2)CC1 (stereo not drawn) [Example 147, 6-({6-[3-(4-fluoro-piperidin-1-yl)pyrro-lidin-1-yl]-1H-[1,2,3]tri-azolo[4,5-b]pyra-zin-1-yl}meth-yl)quinoline] | 34 nM
11 | O=C1CCN(c2cnc3nnn(Cc4ccc5ncccc5c4)c3n2)C1 [Example 154, 1-[1-(quinolin-6-yl-methyl)-1H-[1,2,3]tri-azolo[4,5-b]pyra-zin-6-yl]pyrro-lidin-3-one] | 39 nM
12 | CNCC1(O)CCN(c2cnc3nnn(Cc4ccc5ncccc5c4)c3n2)C1 (stereo not drawn) [Example 155, 3-[(meth-ylamino)meth-yl]-1-[1-(quino-lin-6-yl-methyl)-1H-[1,2,3]tri-azolo[4,5-b]pyra-zin-6-yl]pyrro-lidin-3-ol] | 43 nM
13 | CN(C)CC1(O)CCN(c2cnc3nnn(Cc4ccc5ncccc5c4)c3n2)C1 (stereo not drawn) [Example 158, 3-[(di-methylamino)meth-yl]-1-[1-(quino-lin-6-yl-methyl)-1H-[1,2,3]tri-azolo[4,5-b]pyra-zin-6-yl]pyrro-lidin-3-ol] | 31 nM
14 | CCCCOc1cnc2nnn(Cc3ccc4ncccc4c3)c2n1 [Example 161, 6-[(6-butoxy-1H-[1,2,3]tri-azolo[4,5-b]pyra-zin-1-yl)meth-yl]quinoline] | 14 nM
15 | N#Cc1cnc2nnn(Cc3ccc4ncccc4c3)c2n1 [Example 163, 1-(quinolin-6-yl-methyl)-1H-[1,2,3]tri-azolo[4,5-b]pyra-zine-6-carbonitrile] | 25 nM
16 | c1cnc2ccc(Cn3nnc4ncc(N5CCC5)nc43)cc2c1 [Example 165, 6-[(6-azetidin-1-yl-1H-[1,2,3]tri-azolo[4,5-b]pyra-zin-1-yl)meth-yl]quinoline] | 26 nM
17 | COCCOc1cnc2nnn(Cc3ccc4ncccc4c3)c2n1 [Example 169, 6-{[6-(2-methoxy-ethoxy)-1H-[1,2,3]tri-azolo[4,5-b]pyra-zin-1-yl]meth-yl}quinoline] | 26 nM

Further compounds by falling Ki, results first:

Row | Ki | SMILES
18 | 21 nM | CC(C)(CO)Nc1cnc2nnn(Cc3ccc4ncccc4c3)c2n1 [Example 139, 2-methyl-2-{[1-(quino-lin-6-yl-methyl)-1H-[1,2,3]tri-azolo[4,5-b]pyra-zin-6-yl]ami-no}propan-1-ol]
19 | 20 nM | OC1(C(F)(F)F)CCN([C@@H]2CCN(c3cnc4nnn(Cc5ccc6ncccc6c5)c4n3)C2)CC1 [Example 151, 1-{(3R)-1-[1-(quino-lin-6-yl-methyl)-1H-[1,2,3]tri-azolo[4,5-b]pyra-zin-6-yl]pyrro-lidin-3-yl}-4-(tri-fluoromethyl)pipe-ridin-4-ol]
20 | 17 nM | NC(=O)c1cnc2nnn(Cc3ccc4ncccc4c3)c2n1 [Example 162, 1-(quinolin-6-yl-methyl)-1H-[1,2,3]tri-azolo[4,5-b]pyra-zine-6-carbox-amide]
21 | 15 nM | FC1(F)CCN(C2CCN(c3cnc4nnn(Cc5ccc6ncccc6c5)c4n3)C2)C1 (stereo not drawn) [Example 149, 6-{[6-(3,3-di-fluoro-1,3′-bi-pyrrolidin-1′-yl)-1H-[1,2,3]tri-azolo[4,5-b]pyra-zin-1-yl]meth-yl}quinoline]
22 | 15 nM | c1cnc2ccc(Cn3nnc4ncc(N5CC[C@@H](N6CCOCC6)C5)nc43)cc2c1 [Example 153, 6-({6-[(3R)-3-morpho-lin-4-ylpyrro-lidin-1-yl]-1H-[1,2,3]tri-azolo[4,5-b]pyra-zin-1-yl}meth-yl)quinoline]
23 | 14 nM | c1cnc2ccc(Cn3nnc4ncc(N5CCCC5)nc43)cc2c1 [Example 164, 6-[(6-pyrrolidin-1-yl-1H-[1,2,3]tri-azolo[4,5-b]pyra-zin-1-yl)meth-yl]quinoline]
24 | 13 nM | OC[C@H]1C[C@@H]1CNc1cnc2nnn(Cc3ccc4ncccc4c3)c2n1 [Example 129, [(1S,2S)-2-({[1-(quino-lin-6-yl-methyl)-1H-[1,2,3]tri-azolo[4,5-b]pyrazin-6-yl]ami-no}methyl)cyclo-propyl]methanol]
25 | 13 nM | CN(C)c1cnc2nnn(Cc3ccc4ncccc4c3)c2n1 [Example 159, N,N-dimethyl-1-(quino-lin-6-yl-methyl)-1H-[1,2,3]tri-azolo[4,5-b]pyra-zin-6-amine]
26 | 13 nM | CCN(CC)c1cnc2nnn(Cc3ccc4ncccc4c3)c2n1 [Example 160, N,N-diethyl-1-(quino-lin-6-yl-methyl)-1H-[1,2,3]tri-azolo[4,5-b]pyra-zin-6-amine]
27 | 13 nM | CC(C)(O)CNc1cnc2nnn(Cc3ccc4ncccc4c3)c2n1 [Example 167, 2-methyl-1-{[1-(quino-lin-6-ylmeth-yl)-1H-[1,2,3]tri-azolo[4,5-b]pyra-zin-6-yl]ami-no}propan-2-ol]
28 | 10 nM | Fc1cc2ncccc2cc1Cn1nnc2ncc(N3CC[C@@H](N4CCOCC4)C3)nc21 [Example 171, 7-fluoro-6-({6-[(3R)-3-morpho-lin-4-yl-pyrrolidin-1-yl]-1H-[1,2,3]tri-azolo[4,5-b]pyra-zin-1-yl}meth-yl)quinoline]
29 | 9 nM | c1cnc2ccc(Cn3nnc4ncc(NC5CCOCC5)nc43)cc2c1 [Example 143, 1-(quinolin-6-yl-methyl)-N-(tetra-hydro-2H-py-ran-4-yl)-1H-[1,2,3]tri-azolo[4,5-b]py-razin-6-amine]
30 | 8 nM | CCOCC(O)CNc1cnc2nnn(Cc3ccc4ncccc4c3)c2n1 (stereo not drawn) [Example 132, 1-ethoxy-3-{[1-(quino-lin-6-yl-methyl)-1H-[123]tri-azolo[45-b]pyra-zin-6-yl]ami-no}propan-2-ol]
31 | 7 nM | CC1(CNc2cnc3nnn(Cc4ccc5ncccc5c4)c3n2)COC1 [Example 130, N-[(3-methyl-oxetan-3-yl)meth-yl]-1-(quino-lin-6-yl-methyl)-1H-[1,2,3]tri-azolo[4,5-b]pyra-zin-6-amine]
32 | 7 nM | CN[C@@H]1CCN(c2cnc3nnn(Cc4ccc5ncccc5c4)c3n2)C1 [Example 134, (3R)-N-methyl-1-[1-(quino-lin-6-yl-methyl)-1H-[1,2,3]tri-azolo[4,5-b]pyra-zin-6-yl]pyrro-lidin-3-amine]
33 | 7 nM | c1cnc2ccc(Cn3nnc4ncc(NC5CCOC5)nc43)cc2c1 (stereo not drawn) [Example 146, 1-(quinolin-6-yl-methyl)-N-(tetra-hydrofuran-3-yl)-1H-[1,2,3]triazolo[4,5-b]pyra-zin-6-amine]
34 | 6 nM | CC(C)(N)CNc1cnc2nnn(Cc3ccc4ncccc4c3)c2n1 [Example 141, 2-methyl-N~1~-[1-(quino-lin-6-yl-methyl)-1H-[1,2,3]tri-azolo[4,5-b]pyra-zin-6-yl]pro-pane-1,2-diamine]
35 | 5 nM | c1cnc2ccc(Cn3nnc4ncc(NC5CCOC5)nc43)cc2c1 (stereo not drawn) [Example 145, 1-(quinolin-6-yl-methyl)-N-(tetra-hydrofuran-3-yl)-1H-[1,2,3]tri-azolo[4,5-b]pyra-zin-6-amine]
36 | 4 nM | CC(C)Nc1cnc2nnn(Cc3ccc4ncccc4c3)c2n1 [Example 166, N-isopropyl-1-(quino-lin-6-yl-methyl)-1H-[1,2,3]tri-azolo[4,5-b]pyra-zin-6-amine]
37 | 4 nM | CC(C)(O)CNc1cnc2nnn(Cc3cc4cccnc4cc3F)c2n1 [Example 172, 1-({1-[(7-fluoro-quinolin-6-yl)meth-yl]-1H-[1,2,3]tri-azolo[4,5-b]pyra-zin-6-yl}ami-no)-2-methyl-propan-2-ol]
38 | 3 nM | FC(F)CNc1cnc2nnn(Cc3ccc4ncccc4c3)c2n1 [Example 144, N-(2,2-di-fluoroethyl)-1-(quino-lin-6-yl-methyl)-1H-[1,2,3]tri-azolo[4,5-b]pyra-zin-6-amine]
39 | 1 nM | Fc1cc2ncccc2cc1Cn1nnc2ncc(NC3CCOC3)nc21 (stereo not drawn) [Example 152, 1-[(7-fluoro-quinolin-6-yl)meth-yl]-N-(tetra-hydrofuran-3-yl)-1H-[1,2,3]tri-azolo[4,5-b]pyra-zin-6-amine]
